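Tested at 5 concentrations; 48 h exposure; 96-well plates; endpoints linearly interpolated, else capped at highest concentration. Definition used: TGI = concentration required for complete inhibition of growth.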
What was measured:
Assay in all cases: NCI tumour cell line growth inhibition, 48 h
NCI/ADR-RES ovarian = tested on: NCI/ADR-RES ovarian
RXF 393 renal = tested on: RXF 393 renal
OVCAR-5 ovarian = tested on: OVCAR-5 ovarian
RPMI-8226 leukemia = tested on: RPMI-8226 leukemia
OVCAR-8 ovarian = tested on: OVCAR-8 ovarian
HOP-62 NSCLC = tested on: HOP-62 NSCLC
SF-539 CNS = tested on: SF-539 CNS
T-47D breast = tested on: T-47D breast
ACHN renal = tested on: ACHN renal
CCRF-CEM leukemia = tested on: CCRF-CEM leukemia
IGROV1 ovarian = tested on: IGROV1 ovarian
NCI-H522 lung = tested on: NCI-H522 lung
EKVX NSCLC = tested on: EKVX NSCLC
SW-620 colon = tested on: SW-620 colon
PC-3 prostate = tested on: PC-3 prostate
TK-10 renal = tested on: TK-10 renal
CAKI-1 renal = tested on: CAKI-1 renal
UACC-257 melanoma = tested on: UACC-257 melanoma
U251 CNS = tested on: U251 CNS
MOLT-4 leukemia = tested on: MOLT-4 leukemia
HT29 colon = tested on: HT29 colon
DU-145 prostate = tested on: DU-145 prostate
K-562 leukemia = tested on: K-562 leukemia
OVCAR-3 ovarian = tested on: OVCAR-3 ovarian
MALME-3M melanoma = tested on: MALME-3M melanoma
SN12C renal = tested on: SN12C renal
SK-MEL-2 melanoma = tested on: SK-MEL-2 melanoma
HCC-2998 colon = tested on: HCC-2998 colon
SK-MEL-5 melanoma = tested on: SK-MEL-5 melanoma
COLO 205 colon = tested on: COLO 205 colon
MDA-MB-435 = tested on: MDA-MB-435
A498 renal = tested on: A498 renal
HS 578T breast = tested on: HS 578T breast
M14 melanoma = tested on: M14 melanoma
NCI-H226 lung = tested on: NCI-H226 lung
A549 NSCLC = tested on: A549 NSCLC
UO-31 renal = tested on: UO-31 renal
NCI-H460 lung = tested on: NCI-H460 lung
OVCAR-4 ovarian = tested on: OVCAR-4 ovarian
BT-549 breast = tested on: BT-549 breast
NCI-H23 lung = tested on: NCI-H23 lung
SK-OV-3 ovarian = tested on: SK-OV-3 ovarian
SNB-75 CNS = tested on: SNB-75 CNS
SF-268 CNS = tested on: SF-268 CNS
UACC-62 melanoma = tested on: UACC-62 melanoma
HCT-15 colon = tested on: HCT-15 colon
786-0 renal = tested on: 786-0 renal
SF-295 CNS = tested on: SF-295 CNS
MDA-N = tested on: MDA-N
KM12 colon = tested on: KM12 colon
SK-MEL-28 melanoma = tested on: SK-MEL-28 melanoma
HCT-116 colon = tested on: HCT-116 colon
HL-60(TB) leukemia = tested on: HL-60(TB) leukemia
LOX IMVI melanoma = tested on: LOX IMVI melanoma
SNB-19 CNS = tested on: SNB-19 CNS
MDA-MB-231 breast = tested on: MDA-MB-231 breast

Work on `O=C1c2cc3c(cc2CC1Br)CCC3` (stereo unspecified) yielded a TGI (NCI/ADR-RES ovarian) of 19.2 µM, a TGI (RXF 393 renal) of 4.04 µM and a TGI (OVCAR-5 ovarian) of 14.9 µM. The TGI (RPMI-8226 leukemia) was 4.45 µM, the TGI (OVCAR-8 ovarian) was 4.04 µM and the TGI (HOP-62 NSCLC) was 30.8 µM. For the same compound, the TGI (SF-539 CNS) was 4.2 µM, the TGI (T-47D breast) was 5.68 µM and the TGI (ACHN renal) was 13.1 µM. The TGI (CCRF-CEM leukemia) was 2.18 µM, the TGI (IGROV1 ovarian) was 9.3 µM and the TGI (NCI-H522 lung) was 3 µM. It also gave a TGI (EKVX NSCLC) of 28.9 µM, a TGI (SW-620 colon) of 3 µM and a TGI (PC-3 prostate) of 11.7 µM. For the same compound, the TGI (TK-10 renal) was 8.77 µM, the TGI (CAKI-1 renal) was 3.23 µM and the TGI (UACC-257 melanoma) was 5.1 µM. It also gave a TGI (U251 CNS) of 8.09 µM, a TGI (MOLT-4 leukemia) of 4.56 µM and a TGI (HT29 colon) of 5.78 µM. For the same compound, the TGI (DU-145 prostate) was 29.4 µM, the TGI (K-562 leukemia) was 7.04 µM and the TGI (OVCAR-3 ovarian) was 3.86 µM. The TGI (MALME-3M melanoma) was 2.82 µM, the TGI (SN12C renal) was 3.22 µM and the TGI (SK-MEL-2 melanoma) was 5.2 µM. It also gave a TGI (HCC-2998 colon) of 13.4 µM, a TGI (SK-MEL-5 melanoma) of 3.36 µM and a TGI (COLO 205 colon) of 3.85 µM. For the same compound, the TGI (MDA-MB-435) was 4.23 µM, the TGI (A498 renal) was 32.2 µM and the TGI (HS 578T breast) was > 100 µM. It also gave a TGI (M14 melanoma) of 2.85 µM, a TGI (NCI-H226 lung) of 11.4 µM and a TGI (A549 NSCLC) of 38.7 µM. It also gave a TGI (UO-31 renal) of 22.4 µM, a TGI (NCI-H460 lung) of 56.2 µM and a TGI (OVCAR-4 ovarian) of 3.86 µM. For the same compound, the TGI (BT-549 breast) was 4.49 µM, the TGI (NCI-H23 lung) was 9.27 µM and the TGI (SK-OV-3 ovarian) was 15.9 µM. It also gave a TGI (SNB-75 CNS) of 7.44 µM, a TGI (SF-268 CNS) of 28.5 µM and a TGI (UACC-62 melanoma) of 11.7 µM. It also gave a TGI (HCT-15 colon) of 4.82 µM, a TGI (786-0 renal) of 3.47 µM and a TGI (SF-295 CNS) of 11.5 µM. For the same compound, the TGI (MDA-N) was 3.48 µM, the TGI (KM12 colon) was 22.1 µM and the TGI (SK-MEL-28 melanoma) was 8.56 µM. For the same compound, the TGI (HCT-116 colon) was 3.03 µM, the TGI (HL-60(TB) leukemia) was > 20.1 µM and the TGI (LOX IMVI melanoma) was 2 µM. The TGI (SNB-19 CNS) was 27.6 µM and the TGI (MDA-MB-231 breast) was 13.9 µM.
